The subject of assay [1] is pAKT(S473) in H358 cell line. The assay can be described thus: In vitro Phospho-AKT(S473) HTRF analysis in H358 cells. The note with it: for IC50 / Emax: Homo sapiens, NCI-H358, 0.5 h; for IC50: H358 cells, 30 minutes at 37° C.; for Emax: read-out: H358 pAKT Imax % control. In kind it is cell-based. As to the method: Example 5. In Vitro Phosgho-AKT(S473) Analysis
Functional activity of the compounds to inhibit pAKT were assessed in FaDu or H358 cell lines as indicated below.
• Complete Media • FBS, Corning catalog #35-010-CV • Anti-Anti, Gibco catalog #15240-062 • 96 well plate, Corning catalog #3610 • TrypLE, Gibco catalog #12604013 • Phospho-AKT(S473) HTRF kit, Cisbio catalog #64AKSPET
Cells were detached from the tissue culture flask with TrypLE. The cells were pelleted at 500×g for 5 min, TrypLe was removed and then resuspended in the necessary volume of media+1% FBS to give the appropriate cell density (17,500 cells/mL for FaDu; 20,000 cells/mL for H358). 100 μL of cell suspension/well was dispensed into the 96-well plate while keeping the outer wells of the plate free of cells and filled with PBS to prevent evaporation of interior wells. The plate was incubated at 37° C. and allowed to adhere overnight. The cells were treated with a dose response of compound and incubated at 37° C. for 30 minutes. The cells were then processed and pAKT(S473) levels were assessed following the specifications of the Cisbio HTRF kit.
In general terms: TR-FRET usually uses a lanthanide donor and a delayed reading to cut background.

Assay [2] concerns pAKT(S473) in FaDu cell line. Nature of the assay: In vitro Phospho-AKT(S473) HTRF analysis in FaDu cells. In kind it is cell-based. The conditions noted are these: for IC50 / Emax: Homo sapiens, 0.5 h; for IC50: FaDu cells, 30 minutes at 37° C.; for Emax: FaDu, read-out: FaDu pAKT Imax % control. In a few lines: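 FaDu or H358 cells were plated overnight in medium with 1% FBS, then exposed to a compound dose response for 30 minutes at 37° C. Phospho-AKT(S473) levels were measured by HTRF.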

In the next assay the target is T1, PIK3CA (Homo sapiens, UniProt P42336).
T1 construct: endogenous in cells; host or cells: Jurkat cell lysate
T1 sequence (P42336 whole entry): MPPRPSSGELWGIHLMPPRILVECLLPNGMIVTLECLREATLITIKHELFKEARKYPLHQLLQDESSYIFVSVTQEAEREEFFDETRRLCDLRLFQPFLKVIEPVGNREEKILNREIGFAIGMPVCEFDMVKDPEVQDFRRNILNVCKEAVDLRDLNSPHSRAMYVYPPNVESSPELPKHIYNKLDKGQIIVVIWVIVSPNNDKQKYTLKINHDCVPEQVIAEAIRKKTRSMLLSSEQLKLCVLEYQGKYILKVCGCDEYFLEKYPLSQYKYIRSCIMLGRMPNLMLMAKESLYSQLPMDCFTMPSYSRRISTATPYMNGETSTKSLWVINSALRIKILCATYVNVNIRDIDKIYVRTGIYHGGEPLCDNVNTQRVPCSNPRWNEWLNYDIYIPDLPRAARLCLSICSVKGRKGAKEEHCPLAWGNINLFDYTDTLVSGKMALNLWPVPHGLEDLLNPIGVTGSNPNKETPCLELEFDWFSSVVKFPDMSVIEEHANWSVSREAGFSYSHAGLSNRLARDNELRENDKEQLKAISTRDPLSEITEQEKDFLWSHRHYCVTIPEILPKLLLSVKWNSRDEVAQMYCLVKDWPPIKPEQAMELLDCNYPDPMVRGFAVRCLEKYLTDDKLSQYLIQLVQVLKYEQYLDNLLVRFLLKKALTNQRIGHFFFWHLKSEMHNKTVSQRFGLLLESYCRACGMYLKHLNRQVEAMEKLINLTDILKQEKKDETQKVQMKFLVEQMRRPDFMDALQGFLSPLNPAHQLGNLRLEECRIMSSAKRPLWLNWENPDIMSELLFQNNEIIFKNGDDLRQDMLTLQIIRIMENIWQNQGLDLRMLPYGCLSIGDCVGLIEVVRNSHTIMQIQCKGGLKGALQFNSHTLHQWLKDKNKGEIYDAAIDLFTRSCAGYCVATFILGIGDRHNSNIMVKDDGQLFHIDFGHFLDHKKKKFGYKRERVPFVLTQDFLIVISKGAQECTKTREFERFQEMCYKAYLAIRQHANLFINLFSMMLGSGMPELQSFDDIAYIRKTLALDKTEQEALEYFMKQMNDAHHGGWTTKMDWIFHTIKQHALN
T1 sequence (P27986 whole entry partner): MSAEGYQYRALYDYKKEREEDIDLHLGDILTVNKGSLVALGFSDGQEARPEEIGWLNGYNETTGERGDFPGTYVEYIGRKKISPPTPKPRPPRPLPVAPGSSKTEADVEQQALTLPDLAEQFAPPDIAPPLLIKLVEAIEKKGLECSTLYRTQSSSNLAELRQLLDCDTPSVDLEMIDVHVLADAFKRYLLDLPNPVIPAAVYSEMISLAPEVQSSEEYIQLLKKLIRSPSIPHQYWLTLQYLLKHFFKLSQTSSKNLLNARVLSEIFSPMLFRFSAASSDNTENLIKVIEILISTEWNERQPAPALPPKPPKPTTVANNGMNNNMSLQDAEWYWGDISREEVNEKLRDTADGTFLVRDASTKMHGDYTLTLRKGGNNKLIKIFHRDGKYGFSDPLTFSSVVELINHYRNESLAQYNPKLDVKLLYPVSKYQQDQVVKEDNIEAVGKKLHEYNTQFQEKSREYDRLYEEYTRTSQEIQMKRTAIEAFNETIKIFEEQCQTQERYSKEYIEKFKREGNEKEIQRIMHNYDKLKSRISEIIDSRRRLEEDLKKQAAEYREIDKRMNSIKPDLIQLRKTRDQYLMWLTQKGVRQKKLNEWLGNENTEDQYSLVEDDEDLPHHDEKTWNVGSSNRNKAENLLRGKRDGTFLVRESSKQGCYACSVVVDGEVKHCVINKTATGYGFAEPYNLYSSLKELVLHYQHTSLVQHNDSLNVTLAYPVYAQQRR
The assay can be described thus: In vitro ELISA target engagement assay for PIK3CA in Jurkat cellular lysate (competition with PIK3CA Biotin Probe). In kind it is binding. The note with it: 1 hour at rt, then 500 nM PIK3CA Biotin Probe, read-out: Elisa Target Engagement Assay (TE50). In a few lines: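 Competition format in Jurkat lysate: compound (serial dilutions, top 200 μM) for 1 h at rt, then 500 nM final biotinylated PIK3CA probe for 1 h at rt. Sandwich ELISA with capture antibody and Neutravidin-HRP luminescence read-out measured probe-labelled PIK3CA, giving TE50.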
In general terms: An ELISA detects its analyte on a solid surface through an enzyme-linked reagent.

The target in another assay is T2, PIK3CA_C242 (Homo sapiens, UniProt P42336).
T2 construct: endogenous in cells; host or cells: Jurkat cell lysate
T2 sequence (P42336 whole entry): as the sequence (P42336 whole entry) above
T2 sequence (P27986 whole entry partner): as the sequence (P27986 whole entry partner) above
Nature of the assay: Proteomic TE50 (IA-DTB / TMT mass spectrometry) in Jurkat cell lysate. The conditions noted are these: 1 hour at rt, 7-point dose response. The class given is binding. In a few lines: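 Cysteine engagement was read by targeted TMT MS3 of the IA-DTB-labelled, streptavidin-enriched C242 tryptic peptide. Beforehand, Jurkat lysate was exposed to a 7-point 1:5 compound series for 1 h at rt, then to 200 μM IA-DTB for 1 h. Reporter S/N curves gave TE50.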

On to `C[C@H](/C=C\S(C)(=O)=O)NC(=O)[C@@]1(F)CCCN(C(=O)[C@H]2CN(CCC(F)(F)F)C[C@H]2c2ccccc2Cl)CC1` [Compound 196, (R)-1-((3R,4R)-4-(2-chlorophenyl)-1-(3,3,3-trifluoropropyl)pyrrolidine-3-carbonyl)-4-fluoro-N-((R,Z)-4-(methylsulfonyl)but-3-en-2-yl)azepane-4-carboxamide], for which the IC50 in assay [1] was 329 nM; in assay [2], 450 nM; at PIK3CA, 530 nM. The Emax in assay [1] was 96.3%; in assay [2], 86.4%.
Consider `C[C@H](/C=C\S(C)(=O)=O)NC(=O)[C@@]1(F)CCCN(C(=O)[C@H]2CN(CC(F)(F)F)C[C@H]2c2c(F)cccc2Cl)CC1` [Compound 171, (R)-1-((3R,4R)-4-(2-chloro-6-fluorophenyl)-1-(2,2,2-trifluoroethyl)pyrrolidine-3-carbonyl)-4-fluoro-N—((R,Z)-4-(methylsulfonyl)but-3-en-2-yl)azepane-4-carboxamide], for which the IC50 was found to be 82.6 nM in assay [1], 78.9 nM in assay [2] and 92.7 nM on PIK3CA. Besides, the Emax was determined as 101% in assay [1] and 97.8% in assay [2].
Regarding `COc1ccc(Cl)c(-c2cc(Cl)ncc2S(=O)(=O)N2CCC(F)(C(=O)N[C@H](C)/C=C\S(C)(=O)=O)CC2)c1` [Compound 217, (R,Z)-1-((6-chloro-4-(2-chloro-5-methoxyphenyl)pyridin-3-yl)sulfonyl)-4-fluoro-N-(4-(methylsulfonyl)but-3-en-2-yl)piperidine-4-carboxamide], the IC50 in assay [1] was 953 nM; on PIK3CA_C242, 980 nM; at PIK3CA, 1450 nM. The Emax in assay [1] amounted to 74.6%.
As for `C[C@H](/C=C\S(C)(=O)=O)NC(=O)C1(F)CCN(S(=O)(=O)c2ccc(Br)cc2-c2ccccc2Cl)CC1` [Compound 47, 1-[4-bromo-2-(2-chlorophenyl)phenyl]sulfonyl-4-fluoro-N—[(Z,1R)-1-methyl-3-methylsulfonyl-allyl]piperidine-4-carboxamide], the “absolute inhibition of pAKT” value in assay [1] (H358 cell line, internal standard, variation between runs) is recorded as 40-89%; in assay [2] (FaDu cell line, internal standard, variation between runs) it was 43-98%. This molecule also came in with an IC50 in assay [2] of 96.5 nM. For the same molecule, the Emax in assay [2] was 100%.
Regarding `C[C@H](/C=C\S(C)(=O)=O)NC(=O)[C@@]1(F)CCCCN(C(=O)[C@H]2CN(CC(F)(F)F)C[C@H]2c2ccccc2Cl)CC1` (single isomer, unassigned) [Compound 272, (*R)-1-((3R,4R)-4-(2-chlorophenyl)-1-(2,2,2-trifluoroethyl)pyrrolidine-3-carbonyl)-4-fluoro-N-((R,Z)-4-(methylsulfonyl)but-3-en-2-yl)azocane-4-carboxamide], in assay [1], the IC50 was 694 nM and the Emax was determined as 89.8%. Besides, the IC50 on PIK3CA worked out at 880 nM.
On to `C[C@H](/C=C\S(C)(=O)=O)NC(=O)C1(F)CCN(C(=O)[C@H]2CN(CC(C)(F)F)C[C@H]2c2ccccc2Cl)CC1` [Compound 179, 1-((3R,4R)-4-(2-chlorophenyl)-1-(2,2-difluoropropyl)pyrrolidine-3-carbonyl)-4-fluoro-N-((R,Z)-4-(methylsulfonyl)but-3-en-2-yl)piperidine-4-carboxamide], for which the values for the IC50 (in assay [1]; at PIK3CA) were 165 nM and 390 nM, respectively. Also, the Emax in assay [1] came to 106%.
As for `C[C@H](/C=C\S(C)(=O)=O)NC(=O)[C@@]1(F)CCCN(C(=O)[C@@H]2CN(CC(F)(F)F)C[C@@H]2c2c(F)cc(F)cc2Cl)CC1` (single isomer, unassigned) [Compound 227, (R)-1-((3*S,4*S)-4-(2-chloro-4,6-difluorophenyl)-1-(2,2,2-trifluoroethyl)pyrrolidine-3-carbonyl)-4-fluoro-N-((R,Z)-4-(methylsulfonyl)but-3-en-2-yl)azepane-4-carboxamide], in assay [1], the IC50 amounted to 250 nM and the Emax is 102%. The IC50 on PIK3CA turned out to be 340 nM.
Regarding `C[C@H](/C=C/S(C)(=O)=O)NC(=O)[C@@]1(F)CCCN(C(=O)[C@H]2CN(CC(F)(F)F)C[C@H]2c2c(F)cccc2Cl)CC1` [Compound 296, (R)-1-((3R,4R)-4-(2-chloro-6-fluorophenyl)-1-(2,2,2-trifluoroethyl)pyrrolidine-3-carbonyl)-4-fluoro-N-((R,E)-4-(methylsulfonyl)but-3-en-2-yl)azepane-4-carboxamide], the IC50 in assay [1] came to 642 nM; on PIK3CA, 400 nM. Further, the Emax in assay [1] came to 69.4%.
Taken in the same sequence, the figures for `C[C@@H](/C=C\S(C)(=O)=O)NC(=O)[C@@]1(F)CCCN(C(=O)[C@H]2CN(CC(F)(F)F)C[C@H]2c2c(F)cccc2Cl)CC1` [Compound 297, (R)-1-((3R,4R)-4-(2-chloro-6-fluorophenyl)-1-(2,2,2-trifluoroethyl)pyrrolidine-3-carbonyl)-4-fluoro-N-((S,Z)-4-(methylsulfonyl)but-3-en-2-yl)azepane-4-carboxamide] were 1500 nM, 910 nM and 87.6%.
On the same counts, the results for `C[C@H]1C[C@](F)(C(=O)N[C@@H]2C=CS(=O)(=O)C2)CCN1C(=O)[C@H]1CN(CC(C)(F)F)C[C@H]1c1ccccc1Cl` (single isomer, unassigned) [Compound 221, (2*S,4*S)-1-((3R,4R)-4-(2-chlorophenyl)-1-(2,2-difluoropropyl)pyrrolidine-3-carbonyl)-N-((R)-1,1-dioxido-2,3-dihydrothiophen-3-yl)-4-fluoro-2-methylpiperidine-4-carboxamide] are 123 nM, 210 nM and 85%.
On the same counts, the results for `C[C@H](/C=C\S(C)(=O)=O)NC(=O)[C@@]1(F)CCCN(C(=O)[C@H]2CN(CC3(F)CC3)C[C@H]2c2c(F)cccc2Cl)CC1` (single isomer, unassigned) [Compound 184, (R)-1-((3*R,4*R)-4-(2-chloro-6-fluorophenyl)-1-((1-fluorocyclopropyl)methyl)pyrrolidine-3-carbonyl)-4-fluoro-N-((R,Z)-4-(methylsulfonyl)but-3-en-2-yl)azepane-4-carboxamide] are 64.6 nM, 85 nM and 102%.
With `C[C@H]1C[C@](F)(C(=O)N[C@@H]2C=CS(=O)(=O)C2)CCN1C(=O)[C@@H]1CN(CC(C)(F)F)C[C@@H]1c1cccc(F)c1Cl` (single isomer, unassigned) [Compound 225, (2*S,4*S)-1-((3*S,4*S)-4-(2-chloro-3-fluorophenyl)-1-(2,2-difluoropropyl)pyrrolidine-3-carbonyl)-N-((R)-1,1-dioxido-2,3-dihydrothiophen-3-yl)-4-fluoro-2-methylpiperidine-4-carboxamide], in assay [1], the IC50 was determined as 465 nM and the Emax was found to be 78.8%. Moreover, on PIK3CA, the IC50 is 640 nM.
On the same counts, the results for `C[C@H](/C=C\S(C)(=O)=O)NC(=O)[C@@]1(F)CCCN(C(=O)[C@H]2CN(CC(F)(F)F)C[C@H]2c2cccc(F)c2F)CC1` (single isomer, unassigned) [Compound 173, (R)-1-((3*R,4*R)-4-(2,3-difluorophenyl)-1-(2,2,2-trifluoroethyl)pyrrolidine-3-carbonyl)-4-fluoro-N-((R,Z)-4-(methylsulfonyl)but-3-en-2-yl)azepane-4-carboxamide] are 464 nM, 85.5% and 540 nM.

The values are drawn from patent US20250026721A1, “COMPOUNDS AND METHODS FOR MODULATING RAS-PI3K” (Vividion Therapeutics, Inc., priority 2023, published 2025).
